PMC12040169 (PLOS Biology, 2025)

test: in vitro; settings: human, hela cells, % viability

SMILES | viability at 28.5 h, 10 µM
COc1ccc2[nH]c(C(=O)N3CCn4nc(CO)cc4C3)c(C)c2c1 [CBK307302] | 106%
COc1ccnc(C(=O)N(Cc2ccccn2)CC2CCCO2)c1 (stereo not shown) [CBK307303] | 94.1%
CCOc1ccccc1CN(C)c1cc(C2CC(N)C2)nc(N)n1 (stereo not shown) [CBK307308] | 82.4%
CCCc1nc(NC(CCO)c2ccc(C)cc2)c2cnn(C)c2n1 (stereo not shown) [CBK307309] | 85.3%
COCC(=O)NCC1Cc2cc(F)cc(-c3ccc(C(C)=O)s3)c2O1 (stereo not shown) [CBK307310] | 98.4%
CCCS(=O)(=O)NC(C)c1cnn(-c2ccc(OC)cc2)c1C (stereo not shown) [CBK307319] | 115%
Cc1c(-c2ccc(N(C)C)nc2)c(C(F)(F)F)nn1C [CBK307320] | 83.5%
O=C(NCCc1c[nH]cn1)N1CCCN(Cc2ccc(F)cc2)CC1 [CBK307323] | 111%
Cc1ccc(C(=O)N(C)Cc2cc(-c3ccncc3)no2)c(=O)n1C [CBK307324] | 83.7%
Cc1cc(-c2cn3cc(C(=O)N4CCNCC4)nc3c(=O)n2C)c(C)o1 [CBK307325] | 108%
CCn1c(C2CCN(C(=O)CCCn3cncn3)CC2)nn(C)c1=O [CBK307326] | 92.4%
Cn1c(N2CC[C@H](O)C2)nc2cc(C(=O)NCCn3cccn3)ccc21 [CBK307328] | 111%
CCn1ncc(CN(C)C(=O)CCC2CCCCN2C)c1C (stereo not shown) [CBK307329] | 116%
CCN(C(=O)c1cn2c3c(cccc3c1=O)CC2)C1CCOC(C)(C)C1 (stereo not shown) [CBK307332] | 90.1%
Cc1cc(C)c(C)c(S(=O)(=O)NCCN2CCCCC2CO)c1C (stereo not shown) [CBK307333] | 90.4%
Cc1nnnn1CC(=O)Nc1nn(C)c2cccc(N3CCOCC3)c12 [CBK307335] | 97%
COCc1nc(NCCCn2c(C)cccc2=O)cc([C@H]2C[C@H](N)C2)n1 [CBK307337] | 103%
CSc1ncc(C(=O)N2CCC(N3CCCC(CO)C3)CC2)c(=O)[nH]1 (stereo not shown) [CBK307338] | 90.3%
Cc1cccn2c(CN3CCCC(O)C3)c(C(=O)N3CCCCC3)nc12 (stereo not shown) [CBK307342] | 94%
COc1nc2ccn(CCC3CCOC3)c(=O)c2cc1C#N (stereo not shown) [CBK307343] | 101%
Cn1cc(CN(C(=O)c2nc(N)nc3c2CCCC3)C2CC2)cn1 [CBK307352] | 90.1%

SMILES | viability at 28.5 h, 10 µM
Cc1nc(N)nc(NCCC2CCCOC2)c1Cl (stereo not shown) [CBK307353] | 97.1%
CCCSCC(=O)Nc1nn(C)c2cccc(N3CCOCC3)c12 [CBK307354] | 105%
CCOC(=O)N1CCN(Cc2ccc(OCC3CCCNC3)cc2)CC1 (stereo not shown) [CBK307355] | 73.8%
COc1cccc(CN2CCCC(NC(=O)NCc3cccs3)C2)c1 (stereo not shown) [CBK307357] | 73.3%
Cc1cccc(OCC2CCCN(C(=O)NCCc3cnn(C)c3)C2)c1 (stereo not shown) [CBK307358] | 96.9%
COCCN(Cc1cnn(C)c1)Cc1cc(O)c2cc(F)ccc2n1 [CBK307359] | 103%
CCCCN(Cc1ccc(C)s1)C(=O)C1CCc2nn(C)c(=O)n2C1 (stereo not shown) [CBK307360] | 94.6%
COc1ccc(OCCCN)c(C(=O)N2CCc3nc[nH]c(=O)c3C2)c1 [CBK307361] | 97.2%
Cn1ncc2c(NCCCC3CCOC3)nc(C(C)(C)C)nc21 (stereo not shown) [CBK307363] | 113%
Cc1cccc(=O)n1CCCn1cc(C2CCOC2)nn1 (stereo not shown) [CBK307368] | 100%
CC1(C)Cc2nc(N3CCOCC3)ncc2C(NC(=O)c2cccs2)C1 (stereo not shown) [CBK307369] | 92.7%
O=C(CSc1nc(-c2cccs2)cc(C(F)(F)F)n1)N1CCSCC1 [CBK307371] | 107%
CN1CCN(C(=O)CSc2nc(-c3cccs3)cc(C(F)(F)F)n2)CC1 [CBK307372] | 92.3%
N#CCCCN1C(=O)C(O)(CC(=O)c2ccccn2)c2ccccc21 (stereo not shown) [CBK307373] | 121%
CSC(C)CCN1CCn2nc(CNc3cnccn3)cc2C1 (stereo not shown) [CBK307376] | 95.5%
CCOCCn1nc(C)cc1C(=O)NC(CC)c1cn2cccnc2n1 (stereo not shown) [CBK307377] | 79%
COc1ccc(Cc2nc(C3CCC3)n(CC3COCCO3)n2)cc1 (stereo not shown) [CBK307378] | 87.8%
Cc1coc(C)c1C(=O)CC1(O)C(=O)N(CCCC#N)c2ccccc21 (stereo not shown) [CBK307383] | 86%
CC(=O)Nc1nnc(SCC(=O)N2CCN(c3ccc(Cl)cc3)CC2)s1 [CBK307384] | 86.6%
Cn1cnnc1SCCNC(=O)N1CCc2sccc2C1 [CBK307385] | 97.3%
COCCN(C(=O)c1[nH]c2c(F)cccc2c1C)C1CCN(C)CC1 [CBK307386] | 95%

SMILES | viability at 28.5 h, 10 µM
COCc1cn(C2CCN(c3cc(-n4cc(C)cn4)ncn3)CC2)nn1 [CBK307388] | 92.9%
Cc1cnc2c(Cl)c(C(=O)NCC(F)(F)F)nn2c1 [CBK307391] | 93.1%
Nc1nc(C2CC(O)C2)cc(N2CCC(Oc3ccccc3Cl)CC2)n1 (stereo not shown) [CBK307392] | 93.2%
CN(Cc1nccn1C)c1nccc(N2CCN[C@H]3CS(=O)(=O)C[C@H]32)n1 [CBK307394] | 84.8%
CCCCn1nc(Cn2cncn2)nc1CC1NC(=O)c2ccccc21 (stereo not shown) [CBK307395] | 108%
OCC1(CNc2ncc(F)c(N3CCCC3)n2)CCCC1 [CBK307397] | 103%
CCC(=O)N1CCCCC(NS(=O)(=O)c2ccc(-n3cccn3)cc2)C1 (stereo not shown) [CBK307398] | 82.5%
Cc1cccc(=O)n1CCCn1cc(-c2ncc[nH]2)nn1 [CBK307401] | 90.7%
CC(=O)NCC1CCC2(CCN(c3nc(C)nc(C)c3C)CC2)O1 (stereo not shown) [CBK307404] | 94.1%
C1=C(CN2CCn3nc(CNc4cnccn4)cc3C2)CCCC1 [CBK307406] | 86.1%
CC1(C)Cc2nc(N3CCOCC3)ncc2C(NC(=O)c2cn[nH]c2)C1 (stereo not shown) [CBK307409] | 106%
COCCN1CCn2c(nc3cc(NC(=O)c4ccccc4)ccc32)C1 [CBK307410] | 89.4%
COCCN1CCn2c(nc3cc(NC(=O)C4CCCCC4)ccc32)C1 [CBK307411] | 112%
COC(=O)Nc1sc2c(c1C(=O)N1CCOCC1)CCC(C)C2 (stereo not shown) [CBK307413] | 95%
O=C(NC1CCCc2nc(N3CCC(CO)CC3)ncc21)C1CCCC1 (stereo not shown) [CBK307415] | 87.4%
CCc1nccn1CCN1CCCC(COc2ccccc2F)C1 (stereo not shown) [CBK307416] | 93.4%
COCC(C)NC(=O)c1cnn2c(C(F)(F)F)cc(-c3cccs3)nc12 (stereo not shown) [CBK307417] | 104%
CCc1cc(C(=O)Nc2nn(C)c3cccc(N4CCOCC4)c23)cs1 [CBK307419] | 110%
CO[C@H]1CNC[C@@H]1NC(=O)c1cccc2c1NCCC2 [CBK307421] | 115%
O=c1[nH]c(NCc2ccccc2)nc2c1CCCC2 [CBK307423] | 89.9%
CCC(=O)Nc1ccc(C(=O)N2CCN(c3ccccc3)CC2)cc1 [CBK307425] | 105%

SMILES | viability at 28.5 h, 10 µM
Cn1cc(C(NC(=O)c2cn3ccsc3n2)C2CC(O)C2)cn1 (stereo not shown) [CBK307428] | 110%
CCCCc1nccc(-c2ccc(OCC)c(C(=O)O)c2)n1 [CBK307429] | 82.8%
CC(=O)NC1CCN(c2nc(C(C)(C)C)nc3c2cnn3C)CC1 [CBK307431] | 101%
CN1CCC(N(C)C(=O)c2ccc(-c3ccccc3CO)cc2)C1 (stereo not shown) [CBK307432] | 103%
Cn1c(N2CC[C@H](O)C2)nc2cc(C(=O)NC[C@@H]3CCCO3)ccc21 [CBK307433] | 109%
CC1(Cn2ccnc2-c2ccccc2C(=O)O)CCCO1 (stereo not shown) [CBK307439] | 88.8%
CN(C)C(=O)c1cn2cc(-c3cccs3)n(CC3CC3)c(=O)c2n1 [CBK307440] | 91.4%
Cc1cc(-n2cccn2)ccc1CN1CCCCC1CN1CCOCC1 (stereo not shown) [CBK307442] | 83.2%
CC(C)c1nc(CCN(C)C(=O)NCc2cc(-c3ccco3)on2)no1 [CBK307443] | 97.8%
CNc1nc(Cn2ncc(N3CCCN(C)CC3)cc2=O)cs1 [CBK307446] | 92.8%
COCCc1nc(C2CCN(C)CC2)n(Cc2ccccc2C)n1 [CBK307449] | 115%
CCCNC(=O)c1ccc(C)c(NC(=O)N[C@@H]2C[C@@H](CO)N(C)C2)c1 [CBK307451] | 92.9%
Cc1nc(O)cc(C2CCN(C(=O)c3scc4c3CCCC4)CC2)n1 [CBK307452] | 85.9%
OC(c1cccs1)C1CCN(Cc2ccc(Cn3cccn3)cc2)CC1 (stereo not shown) [CBK307454] | 83.6%
CC(=O)Nc1cccc(C(=O)NC2CC(=O)N(C3CCCCCC3)C2)c1 (stereo not shown) [CBK307455] | 102%
Cc1n[nH]c2c1CN(Cc1nc(C)c(C)n1C)CC2 [CBK307456] | 84.7%
COCCn1c(CO)nnc1[C@H]1C[C@@H](NC(=O)c2ncc(F)cc2F)C1 [CBK307458] | 106%
CCCn1ccnc1CNc1nc(C)nc2c1c(C)nn2C [CBK307459] | 85%
Cn1ccnc1CN1CCCC(CCC(=O)Nc2ccccc2F)C1 (stereo not shown) [CBK307462] | 92.1%
